Data from patent US20090318678A1, “Stable C-Glycoside Sugar and C-Glycoconjugate Mimetics, Method for preparing same and uses Thereof in Particular in Cosmetics and Drugs” (TFCHEM, priority 2006, published 2009).

Tested on: α-galactosidase and β-galactosidase
Experiment: Test in the presence of glycosidase (resistance to galactosidases, monitored by 19F NMR)
Format: in vitro ADME
Details: phosphate buffer 0.07 M, pH 7, 37° C.; α-galactosidase (5 units) and β-galactosidase (6.25 units); samples after 24, 48, 72, 96 and 120 hours
Procedure: Indeed, it is known that the following compounds undergo enzymatic break-down (FIG. 25).
The protocol used is as follows (FIG. 26)
A solution of compound 17a1 (17.72 mg) in water (500 μl) is added to a solution of phosphate buffer (0.07 M; pH 7, 4 ml) containing α-galactosidase (5 units) and β-galactosidase (6.25 units) at 37° C. The reaction is monitored by ^19F NMR. Samples are taken after 24, 48, 72, 96 and 120 hours.

C[C@H](NC(=O)[C@H](C)NC(=O)[C@@H](N)CCCCNC(=O)[C@H](F)[C@]1(O)O[C@H](CO)[C@H](O)[C@H](O)[C@H]1O)C(=O)O [Compound 17a1]
resistance to glycosidases / stability (change of the starting product by 19F NMR): No change is observed and the starting product remains
